Laboratory results from ChEMBL document CHEMBL1155903, “Cytotoxic calanquinone A from Calanthe arisanensis and its first total synthesis” (Bioorg Med Chem Lett, 2008).
In brackets after ≈: the same amount, converted by molar mass. Activity calls are given as the source filed them. The rule behind the calls is not given here.

What was measured:
Assay type in all cases: functional, cell-based
KB [1] = test: Cytotoxicity against human KB cells
[2] = Cytotoxicity against human KBVIN cells
A549 [3] = test: Cytotoxicity against human A549 cells
HCT-8 [4] = test: Cytotoxicity against human HCT8 cells
MCF7 [5] = test: Cytotoxicity against human MCF7 cells
PC-3 [6] = test: Cytotoxicity against human PC3 cells
DU-145 [7] = test: Cytotoxicity against human DU145 cells
PC-3 [8] = test: Cytotoxicity against human PC3 cells up to 20 ug/mL
DU-145 [9] = test: Cytotoxicity against human DU145 cells up to 20 ug/mL
MCF7 [10] = test: Cytotoxicity against human MCF7 cells up to 20 ug/mL
HCT-8 [11] = test: Cytotoxicity against human HCT8 cells up to 20 ug/mL
KBVIN = test: Cytotoxicity against human KBVIN cells up to 20 ug/mL
A549 [12] = test: Cytotoxicity against human A549 cells up to 20 ug/mL
KB [13] = test: Cytotoxicity against human KB cells up to 20 ug/mL
[14] = Homo sapiens, KB, read-out: EC50
[15] = Homo sapiens, KBVIN, read-out: EC50
[16] = Homo sapiens, A549, read-out: EC50
[17] = Homo sapiens, PC-3, read-out: EC50
[18] = Homo sapiens, DU-145, read-out: EC50

COC1=CC(=O)c2ccc3cc(OC)c(OC)c(OC)c3c2C1=O
EC50 (KB [1]; [14]): 8.08 µg/mL (≈ 24.6 µM) | EC50 [2, 15]: 9.14 µg/mL (≈ 27.8 µM) | EC50 (A549 [3]; [16]): 7.06 µg/mL (≈ 21.5 µM) | EC50 (HCT-8 [4]): 15.2 µg/mL (≈ 46.4 µM) | EC50 (MCF7 [5]): 5.33 µg/mL (≈ 16.2 µM) | EC50 (PC-3 [6]; [17]): 7.81 µg/mL (≈ 23.8 µM) | EC50 (DU-145 [7]; [18]): 4.4 µg/mL (≈ 13.4 µM)

COc1cc2ccc3c(OC)cc(OC)c(OC)c3c2c(OC)c1OC
Activity (PC-3 [8]): inactive | Activity (DU-145 [9]): inactive | Activity (MCF7 [10]): inactive | Activity (HCT-8 [11]): inactive | Activity (KBVIN): inactive | Activity (A549 [12]): inactive | Activity (KB [13]): inactive

COc1cc(OC)c(OC)c(-c2c(C)cc(OC)c(OC)c2OC)c1C=O
Activity (PC-3 [8]): inactive | Activity (DU-145 [9]): inactive | Activity (MCF7 [10]): inactive | Activity (HCT-8 [11]): inactive | Activity (KBVIN): inactive | Activity (A549 [12]): inactive | Activity (KB [13]): inactive

COC1=CC(=O)C(C=O)=C(c2c(C)cc(OC)c(OC)c2OC)C1=O
Activity (PC-3 [8]): inactive | Activity (DU-145 [9]): inactive | Activity (MCF7 [10]): inactive | Activity (HCT-8 [11]): inactive | Activity (KBVIN): inactive | Activity (A549 [12]): inactive | Activity (KB [13]): inactive

COC1=CC(=O)c2ccc3ccccc3c2C1=O [ANNOQUINONE A]
EC50 (KB [1]; [14]): 1.6 µg/mL (≈ 6.72 µM)

COC(=O)C1=C(c2c(C)cc(OC)c(OC)c2OC)C(=O)C(OC)=CC1=O
EC50 (KB [1]; [14]): 4.02 µg/mL (≈ 10.7 µM) | EC50 [2, 15]: 5.48 µg/mL (≈ 14.6 µM) | EC50 (A549 [3]; [16]): 6.12 µg/mL (≈ 16.3 µM) | EC50 (HCT-8 [4]): 5.85 µg/mL (≈ 15.5 µM) | EC50 (MCF7 [5]): 6.4 µg/mL (≈ 17 µM) | EC50 (PC-3 [6]; [17]): 6.09 µg/mL (≈ 16.2 µM) | EC50 (DU-145 [7]; [18]): 4.74 µg/mL (≈ 12.6 µM)

COC1=CC(=O)c2ccc3cc(OC)c(OC)c(O)c3c2C1=O [CALANQUINONE A]
EC50 (KB [1]; kb): 0.3 µg/mL (≈ 0.955 µM) | EC50 ([2]; kbvin): 0.24 µg/mL (≈ 0.764 µM) | EC50 (A549 [3]; a549): 0.31 µg/mL (≈ 0.986 µM) | EC50 (HCT-8 [4]): 0.29 µg/mL (≈ 0.923 µM) | EC50 (PC-3 [6]; pc-3): 0.75 µg/mL (≈ 2.39 µM) | EC50 (DU-145 [7]; du-145): 0.48 µg/mL (≈ 1.53 µM)
